Among the data in US9994546B2, “Cyclopropylamines as LSD1 inhibitors” (Incyte Corporation, priority 2014, dated 2018) are IC50 values, retold here.

This experiment has as its target LSD-1 enzyme (Homo sapiens (Human), UniProt O60341). In words: LANCE LSD1/KDM1A demethylase assay (LSD1 histone demethylase biochemical assay). Conditions: 1 nM LSD-1 enzyme, 1 hour preincubation at 25° C., 0.4 μM biotin-labeled Histone H3 peptide substrate. On the procedure: LANCE LSD1/KDM1A demethylase assay—10 μL of 1 nM LSD-1 enzyme (ENZO BML-SE544-0050) in the assay buffer (50 mM Tris, pH 7.5, 0.01% Tween-20, 25 mM NaCl, 5 mM DTT) were preincubated for 1 hour at 25° C. with 0.8 μL compound/DMSO dotted in black 384 well polystyrene plates. […] After stopping the reactions plates were incubated for 30 minutes and read on a PHERAstar FS plate reader (BMG Labtech).
By IC50 is commonly meant the concentration that inhibits the measured activity by half. Regarding `CCS(=O)(=O)N1CC(CC#N)(N2CCC(N[C@@H]3C[C@H]3c3ccccc3)CC2)C1` [Example 62, [1-(ethylsulfonyl)-3-(4-{[(1R,2S)-2-phenylcyclopropyl]amino}piperidin-1-yl)azetidin-3-yl]acetonitrile], the IC50 is ≤ 100 nM.

On to `CN(C)S(=O)(=O)N1CC(CC#N)(N2CCC(N[C@@H]3C[C@H]3c3ccccc3)CC2)C1` [Example 63, 3-(cyanomethyl)-N,N-dimethyl-3-(4-{[(1R,2S)-2-phenylcyclopropyl]amino}piperidin-1-yl)azetidine-1-sulfonamide], for which the IC50 is ≤ 100 nM.

Regarding `CNS(=O)(=O)N1CC(CC#N)(N2CCC(N[C@@H]3C[C@H]3c3ccccc3)CC2)C1` [Example 64, 3-(cyanomethyl)-N-methyl-3-(4-{[(1R,2S)-2-phenylcyclopropyl]amino}piperidin-1-yl)azetidine-1-sulfonamide], the IC50 was ≤ 100 nM.

In the case of `N#CCC1(N2CCC(N[C@@H]3C[C@H]3c3ccccc3)CC2)CN(S(N)(=O)=O)C1` [Example 65, 3-(cyanomethyl)-3-(4-{[(1R,2S)-2-phenylcyclopropyl]amino}piperidin-1-yl)azetidine-1-sulfonamide], the IC50 is ≤ 100 nM.

On to `CN1CC(CC(=O)O)(N2CCC(N[C@@H]3C[C@H]3c3ccccc3)CC2)C1` [Example 66, [1-methyl-3-(4-{[(1R,2S)-2-phenylcyclopropyl]amino}piperidin-1-yl)azetidin-3-yl]acetic acid], for which the IC50 was ≤ 100 nM.

On to `CCN1CC(CC(=O)O)(N2CCC(N[C@@H]3C[C@H]3c3ccccc3)CC2)C1` [Example 67, [1-ethyl-3-(4-{[(1R,2S)-2-phenylcyclopropyl]amino}piperidin-1-yl)azetidin-3-yl]acetic acid], for which the IC50 is ≤ 100 nM.

With `CN(C)C(=O)CC1(N2CCC(N[C@@H]3C[C@H]3c3ccccc3)CC2)CCC1` [Example 68, N,N-dimethyl-2-[1-(4-{[(1R,2S)-2-phenylcyclopropyl]amino}piperidin-1-yl)cyclobutyl]acetamide], the IC50 was ≤ 100 nM.

`CNC(=O)CC1(N2CCC(N[C@@H]3C[C@H]3c3ccccc3)CC2)CCC1` [Example 69, N-methyl-2-[1-(4-{[(1R,2S)-2-phenylcyclopropyl]amino}piperidin-1-yl)cyclobutyl]acetamide]: the IC50 is ≤ 100 nM.

Take `CCS(=O)(=O)N1CC(CC(=O)N(C)C)(N2CCC(N[C@@H]3C[C@H]3c3ccccc3)CC2)C1` [Example 70, 2-[1-(ethylsulfonyl)-3-(4-{[(1R,2S)-2-phenylcyclopropyl]amino}piperidin-1-yl)azetidin-3-yl]-N,N-dimethylacetamide]: the IC50 is ≤ 100 nM.

On to `CCS(=O)(=O)N1CC(CC(=O)NC)(N2CCC(N[C@@H]3C[C@H]3c3ccccc3)CC2)C1` [Example 71, 2-[1-(ethylsulfonyl)-3-(4-{[(1R,2S)-2-phenylcyclopropyl]amino}piperidin-1-yl)azetidin-3-yl]-N-methylacetamide], for which the IC50 was ≤ 100 nM.

Regarding `N#CCC1(N2CCC(N[C@@H]3C[C@H]3c3ccccc3)CC2)CN([C@H]2CC[C@H](O)CC2)C1` [Example 72, [1-(trans-4-hydroxycyclohexyl)-3-(4-{[(1R,2S)-2-phenylcyclopropyl]amino}piperidin-1-yl)azetidin-3-yl]acetonitrile], the half-inhibitory concentration (IC50) was ≤ 100 nM.

As to `N#CCC1(N2CCC(N[C@@H]3C[C@H]3c3ccccc3)CC2)CN([C@H]2CC[C@@H](O)CC2)C1` [Example 73, [1-(cis-4-hydroxycyclohexyl)-3-(4-{[(1R,2S)-2-phenylcyclopropyl]amino}piperidin-1-yl)azetidin-3-yl]acetonitrile], the IC50 was ≤ 100 nM.

For the molecule `N#CCC1(N2CCC(N[C@@H]3C[C@H]3c3ccccc3)CC2)CN(CCO)C1` [Example 74, [1-(2-hydroxyethyl)-3-(4-{[(1R,2S)-2-phenylcyclopropyl]amino}piperidin-1-yl)azetidin-3-yl]acetonitrile], the IC50 was ≤ 100 nM.

In the case of `N#CCC1(N2CCC(N[C@@H]3C[C@H]3c3ccccc3)CC2)CN(C2CCOCC2)C1` [Example 75, [3-(4-{[(1R,2S)-2-phenylcyclopropyl]amino}piperidin-1-yl)-1-(tetrahydro-2H-pyran-4-yl)azetidin-3-yl]acetonitrile], the 50% inhibitory concentration (IC50) is ≤ 100 nM.

Regarding `N#CCC1(N2CCC(N[C@@H]3C[C@H]3c3ccccc3)CC2)CN(C2CCOC2)C1` (stereo partly drawn) [Example 76, [3-(4-{[(1R,2S)-2-phenylcyclopropyl]amino}piperidin-1-yl)-1-(tetrahydrofuran-3-yl)azetidin-3-yl]acetonitrile], the IC50 was ≤ 100 nM.

Take `CN(C)C(=O)CN1CC(CC#N)(N2CCC(N[C@@H]3C[C@H]3c3ccccc3)CC2)C1` [Example 77, 2-(3-(cyanomethyl)-3-(4-(((1R,2S)-2-phenylcyclopropyl)amino)piperidin-1-yl)azetidin-1-yl)-N,N-dimethylacetamide]: the IC50 was ≤ 100 nM.

For `CNC(=O)CN1CC(CC#N)(N2CCC(N[C@@H]3C[C@H]3c3ccccc3)CC2)C1` [Example 78, 2-[3-(cyanomethyl)-3-(4-{[(1R,2S)-2-phenylcyclopropyl]amino}piperidin-1-yl)azetidin-1-yl]-N-methylacetamide], the IC50 was ≤ 100 nM.

Consider `N#CCC1(N2CCC(N[C@@H]3C[C@H]3c3ccccc3)CC2)CN(CC(N)=O)C1` [Example 79, 2-[3-(cyanomethyl)-3-(4-{[(1R,2S)-2-phenylcyclopropyl]amino}piperidin-1-yl)azetidin-1-yl]acetamide], for which the half-maximal inhibitory concentration (IC50) is ≤ 100 nM.

`Cn1cc(C(=O)N2CC(CC#N)(N3CCC(N[C@@H]4C[C@H]4c4ccccc4)CC3)C2)cn1` [Example 80, [1-[(1-methyl-1H-pyrazol-4-yl)carbonyl]-3-(4-{[(1R,2S)-2-phenylcyclopropyl]amino}piperidin-1-yl)azetidin-3-yl]acetonitrile]: the IC50 was ≤ 100 nM.

In the case of `Cn1nccc1C(=O)N1CC(CC#N)(N2CCC(N[C@@H]3C[C@H]3c3ccccc3)CC2)C1` [Example 81, [1-[(1-methyl-1H-pyrazol-5-yl)carbonyl]-3-(4-{[(1R,2S)-2-phenylcyclopropyl]amino}piperidin-1-yl)azetidin-3-yl]acetonitrile], the half-maximal inhibitory concentration (IC50) was ≤ 100 nM.

`N#CCC1(N2CCC(N[C@@H]3C[C@H]3c3ccccc3)CC2)CN(C(=O)[C@H]2CC[C@H](O)CC2)C1` [Example 82, [1-[(trans-4-hydroxycyclohexyl)carbonyl]-3-(4-{[(1R,2S)-2-phenylcyclopropyl]amino}piperidin-1-yl)azetidin-3-yl]acetonitrile]: the IC50 was ≤ 100 nM.

Turning to `N#CCC1(N2CCC(N[C@@H]3C[C@H]3c3ccccc3)CC2)CN(C(=O)[C@H]2CC[C@@H](O)CC2)C1` [Example 83, [1-[(cis-4-hydroxycyclohexyl)carbonyl]-3-(4-{[(1R,2S)-2-phenylcyclopropyl]amino}piperidin-1-yl)azetidin-3-yl]acetonitrile], the IC50 was ≤ 100 nM.

On to `N#CCC1(N2CCC(N[C@@H]3C[C@H]3c3ccccc3)CC2)CN(C(=O)C2(O)CC2)C1` [Example 84, [1-[(1-hydroxycyclopropyl)carbonyl]-3-(4-{[(1R,2S)-2-phenylcyclopropyl]amino}piperidin-1-yl)azetidin-3-yl]acetonitrile], for which the IC50 is ≤ 100 nM.
